# Assay results: patent US20190209501A1, “COMPOSITIONS AND METHODS OF USE OF BETA-HYDROXY-BETA-METHYLBUTYRATE (HMB) […] IN[…]” (Texas Tech University Office of Research Commercialization, priority 2018, published 2019)
# Tests used:
# [1] = Questionnaires (Mood and Feelings, Pittsburgh Sleep Quality Index, Three-Factor Eating); format: in vivo, human; conditions: for MFQ Δ / MFQ Δ (%) / PSQI Δ / PSQI Δ (%) / TFEQ-CR Δ / TFEQ-CR Δ (%) / TFEQ-EE Δ / TFEQ-EE Δ (%) / TFEQ-UE Δ / TFEQ-UE Δ (%): change baseline to W 8
# Description: As part of the screening procedures, participants were interviewed using a lifestyle questionnaire for determination of baseline eating and exercise habits. Participants completed follow-up lifestyle questionnaires at subsequent research visits. Additionally, participants completed the Mood and Feelings Questionnaire (38), the Pittsburgh Sleep Quality Index (39), the Three-Factor Eating Questionnaire Revised 18-item version (40) and a menstrual cycle questionnaire at each morning laboratory assessment session.
# [2] = Blood markers (lipids, glucose, insulin); format: in vivo, human; conditions: for Cholesterol Δ / Cholesterol Δ (%) / Glucose Δ / Glucose Δ (%) / HDL Δ / HDL Δ (%) / Insulin Δ / Insulin Δ (%) / LDL Δ / LDL Δ (%) / Triglycerides Δ / Triglycerides Δ (%) / VLDL Δ / VLDL Δ (%): baseline to W 8; for Cholesterol ES (d) / Glucose ES (d) / HDL ES (d) / Insulin ES (d) / LDL ES (d) / Triglycerides ES (d) / VLDL ES (d): effect size
# Description: At baseline and after 4 and 8 weeks of the intervention, participants completed two testing sessions: (1) a morning assessment conducted after an overnight fast for assessment of body composition, metabolism, vascular measures and subjective factors: and (2) an afternoon assessment of muscular performance, conducted in the non-fasted state. For morning assessments, participants reported to the laboratory after abstention from eating, drinking, exercising and utilizing caffeine or nicotine for ≥8 hours. Participants were interviewed to confirm adherence to these pre-assessment restrictions. The actual abstention from exercise was ≥14 hours due to the scheduling of exercise sessions. Participants reported to the laboratory wearing athletic clothing, and all metal and accessories were removed from the body prior to testing. Each participant voided her bladder and provided a urine sample. Urine samples were assessed for urine specific gravity (USG) using a digital refractometer (PA201X-093. Misco, Solon, Ohio. USA). Additionally, a standard urinary HCG test was performed to confirm that each participant was not pregnant. Finally, urinary samples were frozen at −80° C. for assessment of urinary HMB content after study unblinding. After voiding, each participant's body mass (BM) and height were determined via digital scale with stadiometer (Seca 769, Hamburg, Germany). Blood draws were performed at Texas Tech University Student Health Services after an overnight fast, and participants completed at-home saliva collections for assessment of the cortisol awakening response (CAR).
# Blood samples collected by certified health professionals were transported via courier to a local clinical laboratory for analysis (University Medical Center Health System, Lubbock, Tex., USA). Testing was performed using standard instrumentation (Cobas 6000, Roche Diagnostics, Risch-Rotkreuz. Switzerland). Total cholesterol, triglycerides and HDL cholesterol were assessed using enzymatic colorimetric assays, and VLDL and non-HDL cholesterol were calculated. LDL cholesterol was calculated using the Martin-Hopkins equation (35). Glucose was measured using an enzymatic UV test, and insulin was assessed via electrochemiluminescence immunoassay. Results of the clinical laboratory analyses were provided to study investigators.
smiles,measurement,setting,value
"CC(C)(O)CC(=O)O [TRFHMB, β-hydroxy-β-methylbutyrate]",MFQ score,"[1]; ITT, Baseline, mean ± SE",1.4 ± 0.6
same,PSQI score,"[1]; ITT, Baseline, mean ± SE",3.1 ± 0.3
same,TFEQ-CR score,"[1]; ITT, Baseline, mean ± SE",17.8 ± 1
same,TFEQ-UE score,"[1]; ITT, Baseline, mean ± SE",20.0 ± 1.2
same,MFQ score,"[1]; ITT, W 4, mean ± SE",0.7 ± 0.4
same,PSQI score,"[1]; ITT, W 4, mean ± SE",3.0 ± 0.3
same,TFEQ-CR score,"[1]; ITT, W 4, mean ± SE",18.0 ± 1
same,TFEQ-EE score,"[1]; ITT, W 4, mean ± SE",4.9 ± 0.5
same,TFEQ-UE score,"[1]; ITT, W 4, mean ± SE",18.1 ± 1.4
same,MFQ score,"[1]; ITT, W 8, mean ± SE",0.4 ± 0.4
same,PSQI score,"[1]; ITT, W 8, mean ± SE",2.7 ± 0.2
same,TFEQ-CR score,"[1]; ITT, W 8, mean ± SE",18.2 ± 1.1
same,TFEQ-EE score,"[1]; ITT, W 8, mean ± SE",4.5 ± 0.6
same,TFEQ-UE score,"[1]; ITT, W 8, mean ± SE",16.3 ± 1.3
same,MFQ Δ,[1]; ITT,−1.0
same,MFQ Δ (%),[1]; ITT,−71%
same,PSQI Δ,[1]; ITT,−0.4
same,PSQI Δ (%),[1]; ITT,−13%
same,TFEQ-CR Δ,[1]; ITT,0.4
same,TFEQ-CR Δ (%),[1]; ITT,2%
same,TFEQ-EE Δ,[1]; ITT,−0.9
same,TFEQ-EE Δ (%),[1]; ITT,−17%
same,TFEQ-UE Δ,[1]; ITT,−3.7
same,TFEQ-UE Δ (%),[1]; ITT,−19%
same,MFQ (Mood and Feelings Questionnaire) score,"[1]; PP, Baseline, mean ± SE",1.1 ± 0.7
same,PSQI (Pittsburgh Sleep Quality Index) score,"[1]; PP, Baseline, mean ± SE",3.1 ± 0.3
same,"TFEQ-CR (Three-Factor Eating Questionnaire, Cognitive Restraint) score","[1]; PP, Baseline, mean ± SE",17.1 ± 1.2
same,TFEQ-EE (Emotional Eating) score,"[1]; PP, Baseline, mean ± SE",4.9 ± 0.6
same,TFEQ-UE (Uncontrolled Eating) score,"[1]; PP, Baseline, mean ± SE",18.4 ± 1.3
same,MFQ score,"[1]; PP, W 4, mean ± SE",0.6 ± 0.5
same,PSQI score,"[1]; PP, W 4, mean ± SE",2.7 ± 0.3
same,TFEQ-CR score,"[1]; PP, W 4, mean ± SE",18.3 ± 1.2
same,TFEQ-EE score,"[1]; PP, W 4, mean ± SE",4.4 ± 0.7
same,TFEQ-UE score,"[1]; PP, W 4, mean ± SE",18.7 ± 2.0
same,MFQ score,"[1]; PP, W 8, mean ± SE",0.1 ± 0.5
same,PSQI score,"[1]; PP, W 8, mean ± SE",2.6 ± 0.3
same,TFEQ-CR score,"[1]; PP, W 8, mean ± SE",18.8 ± 1.1
same,TFEQ-EE score,"[1]; PP, W 8, mean ± SE",3.7 ± 0.7
same,TFEQ-UE score,"[1]; PP, W 8, mean ± SE",15.5 ± 1.8
same,MFQ Δ,[1]; PP,−1.0
same,MFQ Δ (%),[1]; PP,−91%
same,PSQI Δ,[1]; PP,−0.5
same,PSQI Δ (%),[1]; PP,−16%
same,TFEQ-CR Δ,[1]; PP,1.7
same,TFEQ-CR Δ (%),[1]; PP,10%
same,TFEQ-EE Δ,[1]; PP,−1.2
same,TFEQ-EE Δ (%),[1]; PP,−24%
same,TFEQ-UE Δ,[1]; PP,−2.9
same,TFEQ-UE Δ (%),[1]; PP,−16%
same,Cholesterol,"[2]; ITT, Baseline",178 ± 9 mg/dL
same,Glucose,"[2]; ITT, Baseline",90 ± 3 mg/dL
same,HDL,"[2]; ITT, Baseline",75 ± 4 mg/dL
same,Insulin,"[2]; ITT, Baseline",10 ± 2 mcU/mL
same,LDL,"[2]; ITT, Baseline",85 ± 7 mg/dL
same,Triglycerides,"[2]; ITT, Baseline",95 ± 10 mg/dL
same,VLDL,"[2]; ITT, Baseline",19 ± 2 mg/dL
same,Cholesterol,"[2]; ITT, W 8",183 ± 11 mg/dL
same,Glucose,"[2]; ITT, W 8",89 ± 3 mg/dL
same,HDL,"[2]; ITT, W 8",68 ± 5 mg/dL
same,Insulin,"[2]; ITT, W 8",13 ± 3 mcU/mL
same,LDL,"[2]; ITT, W 8",97 ± 7 mg/dL
same,Triglycerides,"[2]; ITT, W 8",85 ± 12 mg/dL
same,VLDL,"[2]; ITT, W 8",17 ± 2 mg/dL
same,Cholesterol Δ,[2]; ITT,5 mg/dL
same,Cholesterol Δ (%),[2]; ITT,3%
same,Glucose Δ,[2]; ITT,-1 mg/dL
same,Glucose Δ (%),[2]; ITT,−1%
same,HDL Δ,[2]; ITT,-7 mg/dL
same,HDL Δ (%),[2]; ITT,−9%
same,Insulin Δ,[2]; ITT,3 mcU/mL
same,Insulin Δ (%),[2]; ITT,30%
same,LDL Δ,[2]; ITT,12 mg/dL
same,LDL Δ (%),[2]; ITT,14%
same,Triglycerides Δ,[2]; ITT,-10 mg/dL
same,Triglycerides Δ (%),[2]; ITT,−11%
same,VLDL Δ,[2]; ITT,-2 mg/dL
same,VLDL Δ (%),[2]; ITT,−11%
same,Cholesterol ES (d),[2]; ITT,0.14
same,Glucose ES (d),[2]; ITT,−0.09
same,HDL ES (d),[2]; ITT,−0.43
same,Insulin ES (d),[2]; ITT,0.27
same,LDL ES (d),[2]; ITT,0.48
same,Triglycerides ES (d),[2]; ITT,−0.25
same,VLDL ES (d),[2]; ITT,−0.28
same,Cholesterol,"[2]; PP, Baseline",168 ± 13 mg/dL
same,Glucose,"[2]; PP, Baseline",92 ± 4 mg/dL
same,HDL,"[2]; PP, Baseline",72 ± 5 mg/dL
same,Insulin,"[2]; PP, Baseline",9 ± 3 mcU/mL
same,LDL,"[2]; PP, Baseline",78 ± 9 mg/dL
same,Triglycerides,"[2]; PP, Baseline",91 ± 14 mg/dL
same,VLDL,"[2]; PP, Baseline",18 ± 3 mg/dL
same,Cholesterol,"[2]; PP, W 8",183 ± 15 mg/dL
same,Glucose,"[2]; PP, W 8",90 ± 4 mg/dL
same,HDL,"[2]; PP, W 8",70 ± 6 mg/dL
same,Insulin,"[2]; PP, W 8",10 ± 3 mcU/mL
same,LDL,"[2]; PP, W 8",96 ± 9 mg/dL
same,Triglycerides,"[2]; PP, W 8",80 ± 17 mg/dL
same,VLDL,"[2]; PP, W 8",16 ± 3 mg/dL
same,Cholesterol Δ,[2]; PP,15 mg/dL
same,Cholesterol Δ (%),[2]; PP,9%
same,Glucose Δ,[2]; PP,-2 mg/dL
same,Glucose Δ (%),[2]; PP,−2%
same,HDL Δ,[2]; PP,-2 mg/dL
same,HDL Δ (%),[2]; PP,−3%
same,Insulin Δ,[2]; PP,1 mcU/mL
same,Insulin Δ (%),[2]; PP,11%
same,LDL Δ,[2]; PP,18 mg/dL
same,LDL Δ (%),[2]; PP,23%
same,Triglycerides Δ,[2]; PP,-11 mg/dL
same,Triglycerides Δ (%),[2]; PP,−12%
same,VLDL Δ,[2]; PP,-2 mg/dL
same,VLDL Δ (%),[2]; PP,−11%
same,Cholesterol ES (d),[2]; PP,0.40
same,Glucose ES (d),[2]; PP,−0.19
same,HDL ES (d),[2]; PP,−0.14
same,Insulin ES (d),[2]; PP,0.55
same,LDL ES (d),[2]; PP,0.76
same,Triglycerides ES (d),[2]; PP,−0.27
same,VLDL ES (d),[2]; PP,−0.30
